# In the kinase profiling compilation of Christmann-Franck et al. (2016):
# How the values were obtained:
# Test in all cases: radiometric filter-binding kinase assay
# [1] = tested on: AKT1 (human), P31749 [S473D]
# [2] = biological target: AURKA (human) (UniProt O14965)
# [3] = biological target: BRSK1 (human) (UniProt Q8TDC3)
# [4] = biological target: BRSK2 (human) (UniProt Q8IWQ3)
# [5] = biological target: BTK (human) (UniProt Q06187)
# [6] = biological target: CaMK1 (human) (UniProt Q14012)
# Chain of CaMK1 (human) (Q14012 whole entry, looked up): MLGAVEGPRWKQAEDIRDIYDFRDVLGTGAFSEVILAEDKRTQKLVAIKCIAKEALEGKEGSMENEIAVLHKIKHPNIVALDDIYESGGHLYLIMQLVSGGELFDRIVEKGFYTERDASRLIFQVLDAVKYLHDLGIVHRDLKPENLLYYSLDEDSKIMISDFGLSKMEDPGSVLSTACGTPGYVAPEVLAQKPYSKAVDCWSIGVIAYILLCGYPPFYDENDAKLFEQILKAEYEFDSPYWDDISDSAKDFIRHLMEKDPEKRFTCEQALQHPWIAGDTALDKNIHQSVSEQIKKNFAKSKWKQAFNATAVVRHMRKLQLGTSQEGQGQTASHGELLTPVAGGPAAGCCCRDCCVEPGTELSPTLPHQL
# [7] = biological target: DYRK2 (human) (UniProt Q92630)
# Chain of DYRK2 (human) (Q92630 whole entry, looked up): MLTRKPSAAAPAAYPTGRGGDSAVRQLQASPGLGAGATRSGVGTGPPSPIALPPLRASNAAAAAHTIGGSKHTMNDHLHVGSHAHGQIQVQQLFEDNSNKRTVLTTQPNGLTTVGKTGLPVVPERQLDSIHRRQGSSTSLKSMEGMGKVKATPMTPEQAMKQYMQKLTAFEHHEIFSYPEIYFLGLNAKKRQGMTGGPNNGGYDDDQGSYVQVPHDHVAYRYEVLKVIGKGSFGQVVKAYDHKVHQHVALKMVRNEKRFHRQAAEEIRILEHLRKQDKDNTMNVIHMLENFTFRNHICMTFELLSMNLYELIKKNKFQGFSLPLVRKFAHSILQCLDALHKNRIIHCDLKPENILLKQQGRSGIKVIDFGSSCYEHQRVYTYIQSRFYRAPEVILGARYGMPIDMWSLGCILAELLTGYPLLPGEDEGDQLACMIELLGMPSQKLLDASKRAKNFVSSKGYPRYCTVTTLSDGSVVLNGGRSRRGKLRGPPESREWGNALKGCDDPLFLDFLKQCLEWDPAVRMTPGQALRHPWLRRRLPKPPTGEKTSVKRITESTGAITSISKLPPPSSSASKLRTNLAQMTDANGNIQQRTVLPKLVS
# [8] = biological target: DYRK3 (human) (UniProt O43781)
# Chain of DYRK3 (human) (O43781 whole entry, looked up): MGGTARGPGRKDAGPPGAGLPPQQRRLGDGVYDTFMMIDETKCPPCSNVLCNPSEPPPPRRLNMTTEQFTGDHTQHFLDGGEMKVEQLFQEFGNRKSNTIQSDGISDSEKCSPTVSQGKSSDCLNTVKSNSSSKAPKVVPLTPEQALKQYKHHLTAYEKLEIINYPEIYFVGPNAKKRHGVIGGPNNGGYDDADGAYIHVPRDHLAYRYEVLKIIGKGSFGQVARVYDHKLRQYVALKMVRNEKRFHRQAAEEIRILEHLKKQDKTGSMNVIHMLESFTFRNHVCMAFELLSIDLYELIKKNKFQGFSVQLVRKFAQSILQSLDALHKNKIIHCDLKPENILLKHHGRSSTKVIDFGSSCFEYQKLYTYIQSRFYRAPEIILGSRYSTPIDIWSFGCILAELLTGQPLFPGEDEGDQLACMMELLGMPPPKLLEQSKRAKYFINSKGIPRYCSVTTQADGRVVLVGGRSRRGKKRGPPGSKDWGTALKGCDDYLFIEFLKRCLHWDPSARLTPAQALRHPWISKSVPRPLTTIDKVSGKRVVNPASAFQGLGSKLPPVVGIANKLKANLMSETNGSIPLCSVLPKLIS
# [9] = biological target: EPHA2 (human) (UniProt P29317)
# [10] = biological target: EPHB1 (human) (UniProt P54762)
# [11] = biological target: EPHB2 (human) (UniProt P29323)
# [12] = biological target: EPHB4 (human) (UniProt P54760)
# Chain of EPHB4 (human) (P54760 whole entry, looked up): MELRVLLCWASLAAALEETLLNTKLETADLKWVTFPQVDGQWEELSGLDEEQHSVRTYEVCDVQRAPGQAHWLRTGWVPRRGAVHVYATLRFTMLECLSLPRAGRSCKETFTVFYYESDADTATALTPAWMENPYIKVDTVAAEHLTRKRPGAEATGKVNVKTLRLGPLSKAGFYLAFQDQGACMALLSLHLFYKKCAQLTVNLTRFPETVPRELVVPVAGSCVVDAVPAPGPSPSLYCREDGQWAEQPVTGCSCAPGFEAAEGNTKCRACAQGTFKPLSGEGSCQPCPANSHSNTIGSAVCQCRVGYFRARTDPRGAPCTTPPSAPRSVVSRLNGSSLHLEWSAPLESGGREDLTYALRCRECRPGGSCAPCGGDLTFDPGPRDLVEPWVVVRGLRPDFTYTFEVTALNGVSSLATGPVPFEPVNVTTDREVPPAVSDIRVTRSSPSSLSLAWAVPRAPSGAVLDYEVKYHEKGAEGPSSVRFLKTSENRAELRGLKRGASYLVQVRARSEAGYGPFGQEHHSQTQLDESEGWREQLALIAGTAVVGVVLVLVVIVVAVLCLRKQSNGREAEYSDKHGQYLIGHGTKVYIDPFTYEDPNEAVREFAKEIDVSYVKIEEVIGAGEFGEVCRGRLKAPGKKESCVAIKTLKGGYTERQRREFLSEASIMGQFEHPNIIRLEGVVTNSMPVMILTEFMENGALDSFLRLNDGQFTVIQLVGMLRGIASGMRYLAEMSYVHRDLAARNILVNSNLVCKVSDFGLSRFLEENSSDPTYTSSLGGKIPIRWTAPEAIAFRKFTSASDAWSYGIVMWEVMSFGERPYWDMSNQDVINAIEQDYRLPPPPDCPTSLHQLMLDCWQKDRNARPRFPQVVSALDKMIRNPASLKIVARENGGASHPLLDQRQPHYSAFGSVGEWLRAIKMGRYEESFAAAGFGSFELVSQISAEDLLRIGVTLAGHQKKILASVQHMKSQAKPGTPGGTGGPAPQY
# [13] = biological target: FLT1 (human) (UniProt P17948)
# [14] = biological target: HIPK1 (human) (UniProt Q86Z02)
# [15] = biological target: HIPK2 (human) (UniProt Q9H2X6)
# [16] = biological target: INSR (human) (UniProt P06213)
# [17] = biological target: JAK2 JH1 JH2 (human) (UniProt O60674)
# [18] = biological target: MAP2K1 (human) (UniProt Q02750)
# [19] = biological target: MAP3K1 (human) (UniProt Q13233)
# [20] = biological target: MAP3K11 (human) (UniProt Q16584)
# [21] = biological target: MAP3K5 (human) (UniProt Q99683)
# [22] = biological target: MAPK10 (human) (UniProt P53779)
# [23] = biological target: MAPK11 (human) (UniProt Q15759)
# [24] = biological target: MAPK8 (human) (UniProt P45983)
# [25] = biological target: MAPK9 (human) (UniProt P45984)
# [26] = biological target: MAPKAPK5 (human) (UniProt Q8IW41)
# Chain of MAPKAPK5 (human) (Q8IW41 whole entry, looked up): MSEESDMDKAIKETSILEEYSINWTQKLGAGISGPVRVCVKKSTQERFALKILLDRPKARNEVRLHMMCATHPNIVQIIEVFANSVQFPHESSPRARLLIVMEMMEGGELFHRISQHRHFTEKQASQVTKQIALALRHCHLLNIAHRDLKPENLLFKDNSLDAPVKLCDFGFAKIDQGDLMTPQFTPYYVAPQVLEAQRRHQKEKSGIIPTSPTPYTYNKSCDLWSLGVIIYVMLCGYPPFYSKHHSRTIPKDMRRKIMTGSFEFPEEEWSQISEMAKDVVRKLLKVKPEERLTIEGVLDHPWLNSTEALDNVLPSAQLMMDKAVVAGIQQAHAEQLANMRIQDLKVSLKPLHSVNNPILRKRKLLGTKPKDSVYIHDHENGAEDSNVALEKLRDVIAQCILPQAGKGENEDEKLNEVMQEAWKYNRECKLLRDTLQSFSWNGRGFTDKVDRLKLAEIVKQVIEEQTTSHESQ
# [27] = biological target: MARK3 (human) (UniProt P27448)
# [28] = biological target: PIM1 (human) (UniProt P11309)
# [29] = biological target: PRKCA (human) (UniProt P17252)
# [30] = tested on: RPS6KB1 (human), P23443 [T412E]
# [31] = biological target: STK3 (human) (UniProt Q13188)
# [32] = biological target: SYK (human) (UniProt P43405)
# [33] = biological target: TBK1 (human) (UniProt Q9UHD2)
# [34] = biological target: YES1 (human) (UniProt P07947)
# [35] = biological target: GCK (human) (UniProt Q12851)
# Chain of BTK (human) (Q06187 whole entry, looked up): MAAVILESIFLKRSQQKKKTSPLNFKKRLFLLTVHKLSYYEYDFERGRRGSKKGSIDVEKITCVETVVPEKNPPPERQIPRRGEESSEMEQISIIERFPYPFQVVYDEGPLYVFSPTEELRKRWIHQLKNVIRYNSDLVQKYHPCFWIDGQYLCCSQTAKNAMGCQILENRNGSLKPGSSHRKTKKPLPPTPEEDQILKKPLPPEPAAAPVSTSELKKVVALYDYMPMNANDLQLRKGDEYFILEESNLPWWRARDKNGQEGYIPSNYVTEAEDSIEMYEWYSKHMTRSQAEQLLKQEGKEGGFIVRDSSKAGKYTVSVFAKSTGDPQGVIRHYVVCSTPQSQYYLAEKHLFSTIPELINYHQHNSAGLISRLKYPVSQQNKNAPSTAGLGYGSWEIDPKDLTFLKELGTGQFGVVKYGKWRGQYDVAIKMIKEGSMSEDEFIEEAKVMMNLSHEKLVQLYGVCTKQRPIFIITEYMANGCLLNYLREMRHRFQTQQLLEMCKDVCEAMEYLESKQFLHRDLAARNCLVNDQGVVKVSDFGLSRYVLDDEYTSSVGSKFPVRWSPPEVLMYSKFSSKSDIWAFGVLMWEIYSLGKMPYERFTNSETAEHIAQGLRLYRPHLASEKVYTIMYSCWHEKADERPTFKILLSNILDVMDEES
# Chain of AKT1 (human), P31749 [S473D] (P31749 whole entry S473D, looked up): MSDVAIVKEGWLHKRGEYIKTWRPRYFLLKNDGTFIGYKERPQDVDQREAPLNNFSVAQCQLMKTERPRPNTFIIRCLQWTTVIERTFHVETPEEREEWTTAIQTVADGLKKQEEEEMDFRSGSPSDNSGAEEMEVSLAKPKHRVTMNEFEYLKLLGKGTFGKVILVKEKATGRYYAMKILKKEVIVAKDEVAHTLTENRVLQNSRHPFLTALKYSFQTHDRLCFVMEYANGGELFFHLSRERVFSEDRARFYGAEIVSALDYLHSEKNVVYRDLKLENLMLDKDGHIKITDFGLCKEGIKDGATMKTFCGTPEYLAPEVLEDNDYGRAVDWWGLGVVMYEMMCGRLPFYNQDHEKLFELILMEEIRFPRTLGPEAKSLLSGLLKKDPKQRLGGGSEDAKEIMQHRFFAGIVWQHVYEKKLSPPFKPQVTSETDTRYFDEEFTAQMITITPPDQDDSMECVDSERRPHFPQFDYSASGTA
smiles,measurement,setting,value
CC(C)C[C@H](NC(=O)CNC(=O)c1cc(Cl)ccc1Cl)B1OC(=O)CC(CC(=O)O)(C(=O)O)O1 (stereo not given in full),residual activity,[1]; compound 10.0 µM,83%
same,residual activity,[2]; compound 10.0 µM,105%
same,residual activity,[3]; compound 10.0 µM,90%
same,residual activity,[4]; compound 10.0 µM,90%
same,residual activity,[5]; compound 10.0 µM,90%
same,residual activity,[6]; compound 10.0 µM,80%
same,residual activity,[7]; compound 10.0 µM,94%
same,residual activity,[8]; compound 10.0 µM,97%
same,residual activity,[9]; compound 10.0 µM,98%
same,residual activity,[10]; compound 10.0 µM,75%
same,residual activity,[11]; compound 10.0 µM,95%
same,residual activity,[12]; compound 10.0 µM,91%
same,residual activity,[13]; compound 10.0 µM,64%
same,residual activity,[14]; compound 10.0 µM,111%
same,residual activity,[15]; compound 10.0 µM,88%
same,residual activity,[16]; compound 10.0 µM,58%
same,residual activity,[17]; compound 10.0 µM,104%
same,residual activity,[18]; compound 10.0 µM,92%
same,residual activity,[19]; compound 10.0 µM,92%
same,residual activity,[20]; compound 10.0 µM,99%
same,residual activity,[21]; compound 10.0 µM,81%
same,residual activity,[22]; compound 10.0 µM,91%
same,residual activity,[23]; compound 10.0 µM,70%
same,residual activity,[24]; compound 10.0 µM,85%
same,residual activity,[25]; compound 10.0 µM,87%
same,residual activity,[26]; compound 10.0 µM,92%
same,residual activity,[27]; compound 10.0 µM,72%
same,residual activity,[28]; compound 10.0 µM,88%
same,residual activity,[29]; compound 10.0 µM,113%
same,residual activity,[30]; compound 10.0 µM,94%
same,residual activity,[31]; compound 10.0 µM,100%
same,residual activity,[32]; compound 10.0 µM,66%
same,residual activity,[33]; compound 10.0 µM,81%
same,residual activity,[34]; compound 10.0 µM,82%
CN1CCN(CCOc2cc(OC3CCOCC3)c3c(Nc4c(Cl)ccc5c4OCO5)ncnc3c2)CC1,residual activity,[1]; compound 0.1 µM,99%
same,residual activity,[2]; compound 0.1 µM,112%
same,residual activity,[3]; compound 0.1 µM,94%
same,residual activity,[4]; compound 0.1 µM,96%
same,residual activity,[5]; compound 0.1 µM,57%
same,residual activity,[6]; compound 0.1 µM,106%
same,residual activity,[7]; compound 0.1 µM,109%
same,residual activity,[8]; compound 0.1 µM,114%
same,residual activity,[9]; compound 0.1 µM,55%
same,residual activity,[10]; compound 0.1 µM,81%
same,residual activity,[11]; compound 0.1 µM,66%
same,residual activity,[12]; compound 0.1 µM,76%
same,residual activity,[13]; compound 0.1 µM,116%
same,residual activity,[15]; compound 0.1 µM,80%
same,residual activity,[16]; compound 0.1 µM,90%
same,residual activity,[17]; compound 0.1 µM,102%
same,residual activity,[18]; compound 0.1 µM,97%
same,residual activity,[19]; compound 0.1 µM,84%
same,residual activity,[20]; compound 0.1 µM,85%
same,residual activity,[21]; compound 0.1 µM,100%
same,residual activity,[22]; compound 0.1 µM,116%
same,residual activity,[23]; compound 0.1 µM,85%
same,residual activity,[24]; compound 0.1 µM,97%
same,residual activity,[25]; compound 0.1 µM,88%
same,residual activity,[27]; compound 0.1 µM,99%
same,residual activity,[28]; compound 0.1 µM,116%
same,residual activity,[29]; compound 0.1 µM,100%
same,residual activity,[30]; compound 0.1 µM,93%
same,residual activity,[31]; compound 0.1 µM,102%
same,residual activity,[33]; compound 0.1 µM,103%
same,residual activity,[34]; compound 0.1 µM,4%
Cc1cccc(-c2nn(C(=S)Nc3ccccc3)cc2-c2ccnc3ccccc23)n1,residual activity,[1]; compound 0.1 µM,102%
same,residual activity,[1]; compound 1.0 µM,106%
same,residual activity,[2]; compound 0.1 µM,120%
same,residual activity,[2]; compound 1.0 µM,107%
same,residual activity,[3]; compound 0.1 µM,110%
same,residual activity,[3]; compound 1.0 µM,95%
same,residual activity,[4]; compound 0.1 µM,117%
same,residual activity,[4]; compound 1.0 µM,92%
same,residual activity,[5]; compound 0.1 µM,110%
same,residual activity,[5]; compound 1.0 µM,104%
same,residual activity,[6]; compound 0.1 µM,103%
same,residual activity,[6]; compound 1.0 µM,107%
same,residual activity,[7]; compound 0.1 µM,100%
same,residual activity,[7]; compound 1.0 µM,95%
same,residual activity,[8]; compound 0.1 µM,102%
same,residual activity,[8]; compound 1.0 µM,93%
same,residual activity,[9]; compound 0.1 µM,105%
same,residual activity,[9]; compound 1.0 µM,92%
same,residual activity,[11]; compound 0.1 µM,113%
same,residual activity,[11]; compound 1.0 µM,95%
same,residual activity,[12]; compound 0.1 µM,93%
same,residual activity,[12]; compound 1.0 µM,93%
same,residual activity,[13]; compound 0.1 µM,27%
same,residual activity,[13]; compound 1.0 µM,8%
same,residual activity,[35]; compound 0.1 µM,98%
same,residual activity,[35]; compound 1.0 µM,68%
same,residual activity,[14]; compound 0.1 µM,96%
same,residual activity,[14]; compound 1.0 µM,98%
same,residual activity,[15]; compound 0.1 µM,104%
same,residual activity,[15]; compound 1.0 µM,95%
same,residual activity,[16]; compound 0.1 µM,108%
same,residual activity,[16]; compound 1.0 µM,94%
same,residual activity,[17]; compound 0.1 µM,107%
same,residual activity,[17]; compound 1.0 µM,93%
same,residual activity,[18]; compound 1.0 µM,98%
same,residual activity,[19]; compound 0.1 µM,130%
same,residual activity,[19]; compound 1.0 µM,111%
same,residual activity,[20]; compound 0.1 µM,104%
same,residual activity,[20]; compound 1.0 µM,107%
same,residual activity,[22]; compound 0.1 µM,119%
same,residual activity,[22]; compound 1.0 µM,99%
same,residual activity,[23]; compound 0.1 µM,89%
same,residual activity,[23]; compound 1.0 µM,61%
same,residual activity,[24]; compound 0.1 µM,111%
same,residual activity,[24]; compound 1.0 µM,101%
same,residual activity,[25]; compound 0.1 µM,105%
same,residual activity,[25]; compound 1.0 µM,90%
same,residual activity,[26]; compound 0.1 µM,113%
same,residual activity,[26]; compound 1.0 µM,99%
same,residual activity,[27]; compound 0.1 µM,101%
same,residual activity,[27]; compound 1.0 µM,98%
same,residual activity,[28]; compound 0.1 µM,105%
same,residual activity,[28]; compound 1.0 µM,97%
same,residual activity,[29]; compound 0.1 µM,97%
same,residual activity,[29]; compound 1.0 µM,102%
same,residual activity,[30]; compound 0.1 µM,108%
same,residual activity,[30]; compound 1.0 µM,105%
same,residual activity,[31]; compound 0.1 µM,107%
same,residual activity,[31]; compound 1.0 µM,100%
same,residual activity,[32]; compound 0.1 µM,109%
same,residual activity,[32]; compound 1.0 µM,106%
same,residual activity,[33]; compound 0.1 µM,102%
same,residual activity,[33]; compound 1.0 µM,106%
same,residual activity,[34]; compound 0.1 µM,106%
same,residual activity,[34]; compound 1.0 µM,70%
